Data published in patent US6225478A, “Iridoid derivatives and neovascularization inhibitors containing the same as active ingredient” (Tsumura & Co., priority 1999, dated 2001).

What follows are compounds tested on human umbilical-vein endothelial cells (HUVEC) (assay: Tube Formation Assay (TFA) Test, HUVEC in collagen gel). Conditions: Homo sapiens, HUVEC, Tables 75-83; 0.32 mM sample solution; method as for Compounds 1 through 60; read-out: TFA Inhibition rate (%).
Assay type: cell-based
Summary of the method: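 Inhibition rate (%) of tube formation is computed from tube lengths against control (+) and control (-), measured after 20 h at 37 °C in M-199 with 20% FCS, 30 ng/ml b-FGF and 0.1 μM PMA. Samples were applied to HUVEC on collagen and covered by a second collagen layer (double-layer gel).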

SMILES	inhibition at 320 µM (stock)
CCN(CCO)C(=O)O[C@@H]1OC=C(C(=O)OC)[C@H]2CC[C@H](C)[C@@H]12 [I-203]	15.8%
COC(=O)C1=CO[C@@H](OC(=O)NCCc2cccc(F)c2)[C@H]2[C@@H]1CC[C@@H]2C [I-205]	2%
COC(=O)C1=CO[C@@H](OC(=O)NCCc2ccc(O)cc2)[C@H]2[C@@H]1CC[C@@H]2C [I-206]	14.2%
CCC(CC)NC(=O)O[C@@H]1OC=C(C(=O)OC)[C@H]2CC[C@H](C)[C@@H]12 [I-207]	4.4%
COC(=O)C1=CO[C@@H](OC(=O)NC2CCCCCC2)[C@H]2[C@@H]1CC[C@@H]2C [I-208]	8.2%
COC(=O)C1=CO[C@@H](OC(=O)NCCCCCO)[C@H]2[C@@H]1CC[C@@H]2C [I-209]	4.9%
COC(=O)C1=CO[C@@H](OC(=O)NCCCN(C)C)[C@H]2[C@@H]1CC[C@@H]2C [I-210]	8.9%
COC(=O)C1=CO[C@@H](OC(=O)NCc2ccc(OC(F)(F)F)cc2)[C@H]2[C@@H]1CC[C@@H]2C [I-211]	20.4%
COC(=O)C1=CO[C@@H](OC(=O)NCCc2ccc(F)cc2)[C@H]2[C@@H]1CC[C@@H]2C [I-212]	7.8%
COC(=O)C1=CO[C@@H](OC(=O)NCc2ccc(F)cc2)[C@H]2[C@@H]1CC[C@@H]2C [I-213]	6.2%
COC(=O)C1=CO[C@@H](OC(=O)NCc2ccc(Cl)cc2)[C@H]2[C@@H]1CC[C@@H]2C [I-214]	5.7%
COC(=O)C1=CO[C@@H](OC(=O)NCc2ccco2)[C@H]2[C@@H]1CC[C@@H]2C [I-215]	8.1%
COC(=O)C1=CO[C@@H](OC(=O)N2CCCCC2)[C@H]2[C@@H]1CC[C@@H]2C [I-216]	3.7%
COC(=O)C1=CO[C@@H](OC(=O)NCCCc2ccccc2)[C@H]2[C@@H]1CC[C@@H]2C [I-217]	7.2%
COC(=O)C1=CO[C@@H](OC(=O)NC2CC2)[C@H]2[C@@H]1CC[C@@H]2C [I-218]	5.4%
COC(=O)C1=CO[C@@H](OC(=O)N2CCSCC2)[C@H]2[C@@H]1CC[C@@H]2C [I-219]	30.6%
COC(=O)C1=CO[C@@H](OC(=O)NCCc2c[nH]c3ccccc23)[C@H]2[C@@H]1CC[C@@H]2C [I-220]	7.4%
COC(=O)C1=CO[C@@H](OC(=O)NCc2ccncc2)[C@H]2[C@@H]1CC[C@@H]2C [I-221]	24.5%
COC(=O)C1=CO[C@@H](OC(=O)NCCN(C)C)[C@H]2[C@@H]1CC[C@@H]2C [I-222]	20.8%
COC(=O)C1=CO[C@@H](OC(=O)NCCN2CCCCC2)[C@H]2[C@@H]1CC[C@@H]2C [I-223]	17.9%
COC(=O)C1=CO[C@@H](OC(=O)NCCc2ccccc2)[C@H]2[C@@H]1CC[C@@H]2C [I-224]	10.5%
COC(=O)C1=CO[C@@H](OC(=O)N2CCc3ccccc3C2)[C@H]2[C@@H]1CC[C@@H]2C [I-225]	5.5%
COCCCNC(=O)O[C@@H]1OC=C(C(=O)OC)[C@H]2CC[C@H](C)[C@@H]12 [I-226]	15.3%
COC(=O)C1=CO[C@@H](OC(=O)N(C)CCc2ccc(OC)c(OC)c2)[C@H]2[C@@H]1CC[C@@H]2C [I-227]	7.4%
C=CCNC(=O)O[C@@H]1OC=C(C(=O)OC)[C@H]2CC[C@H](C)[C@@H]12 [I-228]	2.7%
COC(=O)C1=CO[C@@H](OC(=O)NCCCN2CCOCC2)[C@H]2[C@@H]1CC[C@@H]2C [I-229]	3%
C=CCN(CC=C)C(=O)O[C@@H]1OC=C(C(=O)OC)[C@H]2CC[C@H](C)[C@@H]12 [I-230]	6.4%
COC(=O)C1=CO[C@@H](OC(=O)NCc2ccccc2F)[C@H]2[C@@H]1CC[C@@H]2C [I-231]	5.9%

The compounds below were run on HUFEC (assay: Cell Migration Assay (CMA) Test, inhibitory rate with control (-) correction). Conditions: Homo sapiens, 24 h, 125 μl of 0.32 mM sample solution in 4.0 ml medium, 80% or more = remarkable.
Assay type: cell-based, human
Summary of the method: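 Confluent HUFEC monolayers were scratch-wounded, then cultured 24 h at 37 °C, 5% CO2 in M199 (2+) medium with compound added as 125 μl of a 0.32 mM solution (3.2% DMSO) per 4 ml. Giemsa-stained cells migrating into 1 mm×1 mm blocks counted; inhibition % calculated relative to control (+) and control (−) wells.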

SMILES	inhibition at 320 µM (stock)
CCN(CCO)C(=O)O[C@@H]1OC=C(C(=O)OC)[C@H]2CC[C@H](C)[C@@H]12 [I-203]	5.9%
COC(=O)C1=CO[C@@H](OC(=O)NCCc2cccc(F)c2)[C@H]2[C@@H]1CC[C@@H]2C [I-205]	8.7%
COC(=O)C1=CO[C@@H](OC(=O)NCCc2ccc(O)cc2)[C@H]2[C@@H]1CC[C@@H]2C [I-206]	33.6%
CCC(CC)NC(=O)O[C@@H]1OC=C(C(=O)OC)[C@H]2CC[C@H](C)[C@@H]12 [I-207]	5.5%
COC(=O)C1=CO[C@@H](OC(=O)NC2CCCCCC2)[C@H]2[C@@H]1CC[C@@H]2C [I-208]	7.6%
COC(=O)C1=CO[C@@H](OC(=O)NCCCCCO)[C@H]2[C@@H]1CC[C@@H]2C [I-209]	8.9%
COC(=O)C1=CO[C@@H](OC(=O)NCCCN(C)C)[C@H]2[C@@H]1CC[C@@H]2C [I-210]	8%
COC(=O)C1=CO[C@@H](OC(=O)NCc2ccc(OC(F)(F)F)cc2)[C@H]2[C@@H]1CC[C@@H]2C [I-211]	32.1%
COC(=O)C1=CO[C@@H](OC(=O)NCCc2ccc(F)cc2)[C@H]2[C@@H]1CC[C@@H]2C [I-212]	21.5%
COC(=O)C1=CO[C@@H](OC(=O)NCc2ccc(F)cc2)[C@H]2[C@@H]1CC[C@@H]2C [I-213]	21.5%
COC(=O)C1=CO[C@@H](OC(=O)NCc2ccc(Cl)cc2)[C@H]2[C@@H]1CC[C@@H]2C [I-214]	11.7%
COC(=O)C1=CO[C@@H](OC(=O)NCc2ccco2)[C@H]2[C@@H]1CC[C@@H]2C [I-215]	21.5%
COC(=O)C1=CO[C@@H](OC(=O)N2CCCCC2)[C@H]2[C@@H]1CC[C@@H]2C [I-216]	9.4%
COC(=O)C1=CO[C@@H](OC(=O)NCCCc2ccccc2)[C@H]2[C@@H]1CC[C@@H]2C [I-217]	9.4%
COC(=O)C1=CO[C@@H](OC(=O)NC2CC2)[C@H]2[C@@H]1CC[C@@H]2C [I-218]	25%
COC(=O)C1=CO[C@@H](OC(=O)N2CCSCC2)[C@H]2[C@@H]1CC[C@@H]2C [I-219]	6.3%
COC(=O)C1=CO[C@@H](OC(=O)NCCc2c[nH]c3ccccc23)[C@H]2[C@@H]1CC[C@@H]2C [I-220]	25%
COC(=O)C1=CO[C@@H](OC(=O)NCc2ccncc2)[C@H]2[C@@H]1CC[C@@H]2C [I-221]	15.6%
COC(=O)C1=CO[C@@H](OC(=O)NCCN(C)C)[C@H]2[C@@H]1CC[C@@H]2C [I-222]	3.7%
COC(=O)C1=CO[C@@H](OC(=O)NCCN2CCCCC2)[C@H]2[C@@H]1CC[C@@H]2C [I-223]	18.8%
COC(=O)C1=CO[C@@H](OC(=O)NCCc2ccccc2)[C@H]2[C@@H]1CC[C@@H]2C [I-224]	15.6%
COC(=O)C1=CO[C@@H](OC(=O)N2CCc3ccccc3C2)[C@H]2[C@@H]1CC[C@@H]2C [I-225]	25%
COCCCNC(=O)O[C@@H]1OC=C(C(=O)OC)[C@H]2CC[C@H](C)[C@@H]12 [I-226]	17.2%
COC(=O)C1=CO[C@@H](OC(=O)N(C)CCc2ccc(OC)c(OC)c2)[C@H]2[C@@H]1CC[C@@H]2C [I-227]	17.2%
C=CCNC(=O)O[C@@H]1OC=C(C(=O)OC)[C@H]2CC[C@H](C)[C@@H]12 [I-228]	7.2%
COC(=O)C1=CO[C@@H](OC(=O)NCCCN2CCOCC2)[C@H]2[C@@H]1CC[C@@H]2C [I-229]	19.5%
C=CCN(CC=C)C(=O)O[C@@H]1OC=C(C(=O)OC)[C@H]2CC[C@H](C)[C@@H]12 [I-230]	28.7%
COC(=O)C1=CO[C@@H](OC(=O)NCc2ccccc2F)[C@H]2[C@@H]1CC[C@@H]2C [I-231]	9.7%
